Where two headings read alike, the source gives them in different places.
Biological target: human NK1R (Homo sapiens, UniProt P25103)
Assay: human NK1R assay: displacement of radiolabelled substance P binding
Procedure: The substance P antagonizing activity of the compounds described herein was evaluated using the human NK1R assay described in published European patent application no. 0 528 495. The method essentially involves determining the concentration of the test compound required to reduce by 50% the amount of radiolabelled substance P binding to human NK1R, thereby affording an IC50 value for the test compound.

[1] = radiolabelled substance P, assay as in EP 0 528 495, read-out: IC50 (concentration of the test compound required to reduce by 50% the amount of radiolabelled substance P binding to human NK1R)

Chain of human NK1R (P25103 whole entry): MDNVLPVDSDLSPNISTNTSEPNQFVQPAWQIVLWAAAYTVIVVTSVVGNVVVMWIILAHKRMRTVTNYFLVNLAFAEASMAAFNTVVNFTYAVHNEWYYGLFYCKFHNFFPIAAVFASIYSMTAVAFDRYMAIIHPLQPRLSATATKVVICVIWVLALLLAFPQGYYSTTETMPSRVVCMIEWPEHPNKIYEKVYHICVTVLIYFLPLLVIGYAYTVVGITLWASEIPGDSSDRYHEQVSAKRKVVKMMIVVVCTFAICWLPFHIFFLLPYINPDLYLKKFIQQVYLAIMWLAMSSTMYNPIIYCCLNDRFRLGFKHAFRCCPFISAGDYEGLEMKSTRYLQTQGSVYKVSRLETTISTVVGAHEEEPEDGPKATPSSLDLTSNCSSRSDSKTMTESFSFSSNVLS

SMILES | IC50 [1] | IC50
NC(=O)CNC1(c2ccccc2)CCCCC1OCc1cc(C(F)(F)F)cc(C(F)(F)F)c1 (stereo not drawn) [Example 6, 1-(Bis-3,5-trifluoromethylbenzyoxy)-2-(carboxamido)methylamino-2-phenylcyclohexane] | 100 nM | –
Cc1cc(C)cc(COC2CCCCC2(N)c2ccccc2)c1 (stereo not drawn) [Example 1, 1-(3,5-Dimethylbenzyloxy)-2-amino-2-phenylcyclohexane] | – | 100 nM
NC1(c2ccccc2)CCCCC1OCc1cc(C(F)(F)F)cc(C(F)(F)F)c1 (stereo not drawn) [Example 5, 1-(Bis-3,5-trifluoromethylbenzyoxy)-2-amino-2-phenylcyclohexane] | 350 nM | –

Source: US5627211A, “Cyclohexyl amine derivatives and their use as tachykinin antagonists” (Merck Sharp & Dohme Limited, priority 1992, dated 1997)
